Where two headings read alike, the source gives them in different places.
Assays:
aurora A kinase (AURKA) = biological target: T1, aurora A kinase (AURKA) (Homo sapiens, UniProt O14965); experiment: ADP-Glo kinase assay, Aurora A; assay type: biochemical
T1 construct: purchased BPS Bioscience (assay run externally by the vendor)
T1 sequence (O14965 1-403): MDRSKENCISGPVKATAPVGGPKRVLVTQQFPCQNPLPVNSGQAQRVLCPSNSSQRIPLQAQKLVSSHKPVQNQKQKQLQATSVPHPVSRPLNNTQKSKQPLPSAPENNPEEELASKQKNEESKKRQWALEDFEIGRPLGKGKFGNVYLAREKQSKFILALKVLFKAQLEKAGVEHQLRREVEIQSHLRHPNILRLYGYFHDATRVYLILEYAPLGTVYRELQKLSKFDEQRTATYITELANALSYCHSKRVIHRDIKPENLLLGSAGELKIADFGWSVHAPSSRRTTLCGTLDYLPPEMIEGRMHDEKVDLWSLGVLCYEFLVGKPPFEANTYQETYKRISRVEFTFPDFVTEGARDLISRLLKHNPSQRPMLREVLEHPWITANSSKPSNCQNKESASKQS

EGFR = EGFR (Homo sapiens, UniProt P00533); experiment: ADP-Glo kinase assay, EGFR; assay type: biochemical; set-up: purchased BPS Bioscience (assay run externally by the vendor)
[1] = 10 µM ATP, triplicate, read-out: AURKA IC50 ± SD
[2] = 10 µM ATP/0.2 mg/ml Kemptide, read-out: Aurora A IC50 (dose-response curve, supplement)
[3] = 10 µM ATP, triplicate, read-out: EGFR IC50 ± SD
[4] = 10 µM ATP/0.2 mg/ml Poly-Glu-Tyr, read-out: EGFR IC50 (dose-response curve, supplement)

Sequence of EGFR (P00533 25-1210): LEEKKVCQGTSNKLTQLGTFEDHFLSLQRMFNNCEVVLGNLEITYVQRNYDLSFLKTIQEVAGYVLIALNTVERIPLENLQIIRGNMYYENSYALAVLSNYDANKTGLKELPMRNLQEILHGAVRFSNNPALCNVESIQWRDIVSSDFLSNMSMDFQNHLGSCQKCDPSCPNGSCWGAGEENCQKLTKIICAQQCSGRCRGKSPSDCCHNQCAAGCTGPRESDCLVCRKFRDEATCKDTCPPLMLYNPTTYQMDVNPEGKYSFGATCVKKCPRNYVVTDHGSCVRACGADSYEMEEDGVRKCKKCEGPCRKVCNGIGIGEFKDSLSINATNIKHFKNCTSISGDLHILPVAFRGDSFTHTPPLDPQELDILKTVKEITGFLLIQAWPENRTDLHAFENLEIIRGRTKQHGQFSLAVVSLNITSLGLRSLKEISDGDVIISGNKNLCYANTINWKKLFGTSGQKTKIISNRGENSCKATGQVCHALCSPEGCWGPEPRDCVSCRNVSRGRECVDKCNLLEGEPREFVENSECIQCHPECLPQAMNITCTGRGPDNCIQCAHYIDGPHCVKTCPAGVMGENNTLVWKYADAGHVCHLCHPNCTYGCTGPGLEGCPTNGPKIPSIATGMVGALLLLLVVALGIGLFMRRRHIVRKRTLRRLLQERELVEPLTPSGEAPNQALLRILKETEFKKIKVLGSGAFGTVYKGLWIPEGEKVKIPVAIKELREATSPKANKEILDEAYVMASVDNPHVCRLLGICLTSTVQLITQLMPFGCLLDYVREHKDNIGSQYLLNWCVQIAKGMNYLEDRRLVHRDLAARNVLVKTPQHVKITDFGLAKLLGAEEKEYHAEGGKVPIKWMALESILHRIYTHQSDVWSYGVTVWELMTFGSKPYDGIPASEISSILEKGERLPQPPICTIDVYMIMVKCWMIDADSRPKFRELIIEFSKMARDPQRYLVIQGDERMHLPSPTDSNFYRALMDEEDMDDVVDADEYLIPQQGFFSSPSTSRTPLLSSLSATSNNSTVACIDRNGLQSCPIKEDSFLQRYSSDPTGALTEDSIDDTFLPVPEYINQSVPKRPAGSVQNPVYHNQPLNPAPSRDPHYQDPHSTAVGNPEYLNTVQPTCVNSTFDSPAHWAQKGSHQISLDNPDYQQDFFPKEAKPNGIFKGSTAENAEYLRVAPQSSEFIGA

Clc1ccc(Nc2ncnc3[nH]ccc23)cc1 [Compound 4, N^4-(4-chlorophenyl)-7H-pyrrolo[2,3-d]pyrimidine-4-amine]
IC50 (aurora A kinase (AURKA); [1]): 5150 ± 370 nM
IC50 (aurora A kinase (AURKA); [2]): 5200 nM
Aurora A % Activity Set1 (aurora A kinase (AURKA); Log[nM] 0): 98%
Aurora A % Activity Set2 (aurora A kinase (AURKA); Log[nM] 0): 101%
Aurora A % Activity Set3 (aurora A kinase (AURKA); Log[nM] 0): 97%
Aurora A % Activity Set1 (aurora A kinase (AURKA); Log[nM] 1.0): 99%
Aurora A % Activity Set2 (aurora A kinase (AURKA); Log[nM] 1.0): 98%
Aurora A % Activity Set3 (aurora A kinase (AURKA); Log[nM] 1.0): 100%
Aurora A % Activity Set1 (aurora A kinase (AURKA); Log[nM] 1.5): 104%
Aurora A % Activity Set2 (aurora A kinase (AURKA); Log[nM] 1.5): 108%
Aurora A % Activity Set3 (aurora A kinase (AURKA); Log[nM] 1.5): 102%
Aurora A % Activity Set1 (aurora A kinase (AURKA); Log[nM] 2.0): 105%
Aurora A % Activity Set2 (aurora A kinase (AURKA); Log[nM] 2.0): 107%
Aurora A % Activity Set3 (aurora A kinase (AURKA); Log[nM] 2.0): 104%
Aurora A % Activity Set1 (aurora A kinase (AURKA); Log[nM] 2.5): 103%
Aurora A % Activity Set2 (aurora A kinase (AURKA); Log[nM] 2.5): 99%
Aurora A % Activity Set3 (aurora A kinase (AURKA); Log[nM] 2.5): 101%
Aurora A % Activity Set1 (aurora A kinase (AURKA); Log[nM] 3.0): 88%
Aurora A % Activity Set2 (aurora A kinase (AURKA); Log[nM] 3.0): 93%
Aurora A % Activity Set3 (aurora A kinase (AURKA); Log[nM] 3.0): 86%
Aurora A % Activity Set1 (aurora A kinase (AURKA); Log[nM] 3.5): 66%
Aurora A % Activity Set2 (aurora A kinase (AURKA); Log[nM] 3.5): 69%
Aurora A % Activity Set3 (aurora A kinase (AURKA); Log[nM] 3.5): 68%
Aurora A % Activity Set1 (aurora A kinase (AURKA); Log[nM] 4.0): 25%
Aurora A % Activity Set2 (aurora A kinase (AURKA); Log[nM] 4.0): 28%
Aurora A % Activity Set3 (aurora A kinase (AURKA); Log[nM] 4.0): 25%
Aurora A % Activity Set1 (aurora A kinase (AURKA); Log[nM] 4.5): 11%
Aurora A % Activity Set2 (aurora A kinase (AURKA); Log[nM] 4.5): 11%
Aurora A % Activity Set3 (aurora A kinase (AURKA); Log[nM] 4.5): 11%
Aurora A % Activity Set1 (aurora A kinase (AURKA); Log[nM] 5.0): 9%
Aurora A % Activity Set2 (aurora A kinase (AURKA); Log[nM] 5.0): 10%
Aurora A % Activity Set3 (aurora A kinase (AURKA); Log[nM] 5.0): 9%
IC50 (EGFR; [3]): 84.9 ± 15.9 nM
IC50 (EGFR; [4]): 84.5 nM
EGFR % Activity Set1 (EGFR; Log[nM] 0): 102%
EGFR % Activity Set2 (EGFR; Log[nM] 0): 96%
EGFR % Activity Set3 (EGFR; Log[nM] 0): 97%
EGFR % Activity Set1 (EGFR; Log[nM] 1.0): 102%
EGFR % Activity Set2 (EGFR; Log[nM] 1.0): 97%
EGFR % Activity Set3 (EGFR; Log[nM] 1.0): 96%
EGFR % Activity Set1 (EGFR; Log[nM] 1.5): 65%
EGFR % Activity Set2 (EGFR; Log[nM] 1.5): 61%
EGFR % Activity Set3 (EGFR; Log[nM] 1.5): 64%
EGFR % Activity Set1 (EGFR; Log[nM] 2.0): 50%
EGFR % Activity Set2 (EGFR; Log[nM] 2.0): 45%
EGFR % Activity Set3 (EGFR; Log[nM] 2.0): 52%
EGFR % Activity Set1 (EGFR; Log[nM] 2.5): 19%
EGFR % Activity Set2 (EGFR; Log[nM] 2.5): 19%
EGFR % Activity Set3 (EGFR; Log[nM] 2.5): 22%
EGFR % Activity Set1 (EGFR; Log[nM] 3.0): 10%
EGFR % Activity Set2 (EGFR; Log[nM] 3.0): 10%
EGFR % Activity Set3 (EGFR; Log[nM] 3.0): 12%
EGFR % Activity Set1 (EGFR; Log[nM] 3.5): 4%
EGFR % Activity Set2 (EGFR; Log[nM] 3.5): 4%
EGFR % Activity Set3 (EGFR; Log[nM] 3.5): 4%
EGFR % Activity Set1 (EGFR; Log[nM] 4.0): 2%
EGFR % Activity Set2 (EGFR; Log[nM] 4.0): 2%
EGFR % Activity Set3 (EGFR; Log[nM] 4.0): 2%
EGFR % Activity Set1 (EGFR; Log[nM] 4.5): 1%
EGFR % Activity Set2 (EGFR; Log[nM] 4.5): 1%
EGFR % Activity Set3 (EGFR; Log[nM] 4.5): 1%
EGFR % Activity Set1 (EGFR; Log[nM] 5.0): 1%
EGFR % Activity Set2 (EGFR; Log[nM] 5.0): 1%
EGFR % Activity Set3 (EGFR; Log[nM] 5.0): 1%

Cc1cccc(Nc2ncnc3[nH]ccc23)c1 [Compound 12, N^4-(3-methylaniline)-7H-pyrrolo[2,3-d]pyrimidin-4-amine]
IC50 (aurora A kinase (AURKA); [1]): 3430 ± 120 nM
IC50 (aurora A kinase (AURKA); [2]): 3400 nM
Aurora A % Activity Set1 (aurora A kinase (AURKA); Log[nM] 0): 101%
Aurora A % Activity Set2 (aurora A kinase (AURKA); Log[nM] 0): 105%
Aurora A % Activity Set3 (aurora A kinase (AURKA); Log[nM] 0): 95%
Aurora A % Activity Set1 (aurora A kinase (AURKA); Log[nM] 1.0): 100%
Aurora A % Activity Set2 (aurora A kinase (AURKA); Log[nM] 1.0): 102%
Aurora A % Activity Set3 (aurora A kinase (AURKA); Log[nM] 1.0): 97%
Aurora A % Activity Set1 (aurora A kinase (AURKA); Log[nM] 1.5): 97%
Aurora A % Activity Set2 (aurora A kinase (AURKA); Log[nM] 1.5): 100%
Aurora A % Activity Set3 (aurora A kinase (AURKA); Log[nM] 1.5): 97%
Aurora A % Activity Set1 (aurora A kinase (AURKA); Log[nM] 2.0): 96%
Aurora A % Activity Set2 (aurora A kinase (AURKA); Log[nM] 2.0): 101%
Aurora A % Activity Set3 (aurora A kinase (AURKA); Log[nM] 2.0): 105%
Aurora A % Activity Set1 (aurora A kinase (AURKA); Log[nM] 2.5): 89%
Aurora A % Activity Set2 (aurora A kinase (AURKA); Log[nM] 2.5): 95%
Aurora A % Activity Set3 (aurora A kinase (AURKA); Log[nM] 2.5): 95%
Aurora A % Activity Set1 (aurora A kinase (AURKA); Log[nM] 3.0): 89%
Aurora A % Activity Set2 (aurora A kinase (AURKA); Log[nM] 3.0): 91%
Aurora A % Activity Set3 (aurora A kinase (AURKA); Log[nM] 3.0): 92%
Aurora A % Activity Set1 (aurora A kinase (AURKA); Log[nM] 3.5): 48%
Aurora A % Activity Set2 (aurora A kinase (AURKA); Log[nM] 3.5): 50%
Aurora A % Activity Set3 (aurora A kinase (AURKA); Log[nM] 3.5): 53%
Aurora A % Activity Set1 (aurora A kinase (AURKA); Log[nM] 4.0): 17%
Aurora A % Activity Set2 (aurora A kinase (AURKA); Log[nM] 4.0): 17%
Aurora A % Activity Set3 (aurora A kinase (AURKA); Log[nM] 4.0): 17%
Aurora A % Activity Set1 (aurora A kinase (AURKA); Log[nM] 4.5): 7%
Aurora A % Activity Set2 (aurora A kinase (AURKA); Log[nM] 4.5): 8%
Aurora A % Activity Set3 (aurora A kinase (AURKA); Log[nM] 4.5): 8%
Aurora A % Activity Set1 (aurora A kinase (AURKA); Log[nM] 5.0): 4%
Aurora A % Activity Set2 (aurora A kinase (AURKA); Log[nM] 5.0): 4%
Aurora A % Activity Set3 (aurora A kinase (AURKA); Log[nM] 5.0): 3%
IC50 (EGFR; [3]): 20 ± 3.6 nM
IC50 (EGFR; [4]): 19.9 nM
EGFR % Activity Set1 (EGFR; Log[nM] 0): 77%
EGFR % Activity Set2 (EGFR; Log[nM] 0): 88%
EGFR % Activity Set3 (EGFR; Log[nM] 0): 76%
EGFR % Activity Set1 (EGFR; Log[nM] 1.0): 69%
EGFR % Activity Set2 (EGFR; Log[nM] 1.0): 75%
EGFR % Activity Set3 (EGFR; Log[nM] 1.0): 66%
EGFR % Activity Set1 (EGFR; Log[nM] 1.5): 34%
EGFR % Activity Set2 (EGFR; Log[nM] 1.5): 39%
EGFR % Activity Set3 (EGFR; Log[nM] 1.5): 33%
EGFR % Activity Set1 (EGFR; Log[nM] 2.0): 19%
EGFR % Activity Set2 (EGFR; Log[nM] 2.0): 19%
EGFR % Activity Set3 (EGFR; Log[nM] 2.0): 16%
EGFR % Activity Set1 (EGFR; Log[nM] 2.5): 10%
EGFR % Activity Set2 (EGFR; Log[nM] 2.5): 9%
EGFR % Activity Set3 (EGFR; Log[nM] 2.5): 8%
EGFR % Activity Set1 (EGFR; Log[nM] 3.0): 5%
EGFR % Activity Set2 (EGFR; Log[nM] 3.0): 5%
EGFR % Activity Set3 (EGFR; Log[nM] 3.0): 5%
EGFR % Activity Set1 (EGFR; Log[nM] 3.5): 2%
EGFR % Activity Set2 (EGFR; Log[nM] 3.5): 9%
EGFR % Activity Set3 (EGFR; Log[nM] 3.5): 2%
EGFR % Activity Set1 (EGFR; Log[nM] 4.0): 1%
EGFR % Activity Set2 (EGFR; Log[nM] 4.0): 1%
EGFR % Activity Set3 (EGFR; Log[nM] 4.0): 1%
EGFR % Activity Set1 (EGFR; Log[nM] 4.5): 0%
EGFR % Activity Set2 (EGFR; Log[nM] 4.5): 0%
EGFR % Activity Set3 (EGFR; Log[nM] 4.5): 0%
EGFR % Activity Set1 (EGFR; Log[nM] 5.0): 0%
EGFR % Activity Set2 (EGFR; Log[nM] 5.0): 0%
EGFR % Activity Set3 (EGFR; Log[nM] 5.0): 0%

Source: publication PMC6009956, “Design, synthesis and biological activity of N^4-phenylsubstituted-7H-pyrrolo[2,3-d]pyrimidin-4-amines as dual inhibitors of aurora kinase A and epidermal growth factor receptor kinase” (Journal of Enzyme Inhibition and Medicinal Chemistry, 2017)
